Data on one molecule can be found in publication PMC6934184, “Selective DNA-PKcs inhibition extends the therapeutic index of localized radiotherapy and chemotherapy” (The Journal of Clinical Investigation, 2019).

The assay has as its target T1, ACVR2B (Homo sapiens, UniProt Q13705).
T1 construct: purchased Thermo Fisher Scientific (Life Technologies) SelectScreen
Nature of the assay: SelectScreen LanthaScreen. The class given is binding. The note with it: 1 µM. The gist of the method:
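Percent values come from Thermo SelectScreen profiling of NU5455, combining activity and binding assays. CSF1R was run in Z'LYTE format at Km app ATP, and CAMK1 in Adapta format with ATP listed at 10.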
(In general: In TR-FRET formats the signal depends on donor and acceptor labels being close together.)

T1 sequence (Q13705 19-512): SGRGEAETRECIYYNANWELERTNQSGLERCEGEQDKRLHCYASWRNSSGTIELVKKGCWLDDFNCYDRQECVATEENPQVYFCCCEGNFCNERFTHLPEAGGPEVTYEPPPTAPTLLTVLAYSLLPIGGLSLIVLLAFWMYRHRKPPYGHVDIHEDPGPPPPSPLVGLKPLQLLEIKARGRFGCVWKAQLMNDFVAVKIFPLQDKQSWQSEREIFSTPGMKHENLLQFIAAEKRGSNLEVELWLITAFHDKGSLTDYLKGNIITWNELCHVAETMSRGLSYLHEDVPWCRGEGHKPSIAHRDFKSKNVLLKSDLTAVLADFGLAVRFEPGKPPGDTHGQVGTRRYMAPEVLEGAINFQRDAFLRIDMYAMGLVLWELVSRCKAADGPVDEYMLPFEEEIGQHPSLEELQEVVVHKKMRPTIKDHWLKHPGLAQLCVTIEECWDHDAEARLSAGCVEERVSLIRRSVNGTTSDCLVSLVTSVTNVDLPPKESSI

As for `CN(C(=O)CN1CCOCC1)c1ccc2sc3c(-c4cccc5c(=O)cc(N6CC7CCC(C6)O7)oc45)cccc3c2c1` [NU5455], the “% displacement” value is given as 15.7%.
